From patent publication US20150119394A1, “Insulin-Like Growth Factor-1 Receptor Inhibitors” (Merck Sharp & Dohme Corp., priority 2012, published 2015) come the findings set out here.

One data set has as its target T1, CYP3A4 (Homo sapiens, UniProt P08684).
T1 construct: purchased Invitrogen (Vivid screening kits)
Briefly: CYP inhibition fluorescence assay (rhCYP450, Vivid Invitrogen kit). The class given is in vitro ADME. Particulars: for hepatic CYP3A4 inhibition as compared to compound 999: 10 uM; for inhibition at 10 uM: human, read-out: % inhibition @ 10 uM 3A4. As for the experimental part: (§1) The % inhibition @ 10 uM data was generated from an rhCYP450/fluorescence assay according to the Vivid Invitrogen screening kits. The compounds were screened against 5 CYP450 (1A2, 2C9, 2C19, 2D6, and 3A4) isoforms. CYP3A4 constitutes 28% of the human hepatic CYP and is responsible for metabolism of 50% of all drugs. In this class of drugs, CYP3A4 is the most important CYP and thus it is highly desirable not to inhibit CYP3A4. The lower the percentage inhibition, the lower the CYP450 inhibitory liability of that specific compound.

The target of another data set is T2, CYP2D6 (Homo sapiens, UniProt P10635).
T2 construct: purchased Invitrogen (Vivid screening kits)
The description is as above. Type of data set: in vitro ADME. Particulars: for inhibition at 10 uM: human, read-out: % inhibition @ 10 uM 2D6. As for the experimental part:
as §1

Data set [1] has as its target T3, intracellular kinase domain of human IGF-1R (GST fusion protein) (Homo sapiens, UniProt P08069).
T3 construct: IGFRK and IRK enzyme used for the assay was intracellular kinase domain of human IGF-1R; GST; made in house
Briefly: In vitro IGF-1R kinase assay (HTRF). Type of data set: biochemical. As to conditions: ATP 20 μM, IGFRK 0.25 nM.

Data set [2] in a line: Oral absorption in Swiss mice. Particulars: 10 mg/kg p.o.; for Cmax / half-life / AUC(0-inf): male, mouse, plasma, po; for AUC(0-inf): read-out: AUC0-infinity. Type of data set: in vivo. As for the experimental part: Oral absorption of different compounds was ascertained in Swiss mice. The procedure followed was as detailed below:
Species: Swiss mice, overnight fasted state
Sex and weight: Male, in the weight range of 25-30 g
Number of animals: 18 animals divided into six groups (n=3) and bled as follows:
Formulation: Compound suspended in 0.5% carboxymethylcellulose or 0.25% methylcellulose
Blood (250 μL) is collected from the retro-orbital sinus at designated time points from each mouse using heparinized bleeding capillaries into micro-centrifuge tubes containing 5 μL EDTA (200 mM) as anticoagulant. Plasma is separated by centrifugation at 10000 rpm for 5 min and samples stored at −70° C. until bioanalysis.
On the day of analysis, plasma samples are thawed at room temperature. An aliquot (100 μL) of each plasma sample is spiked individually with 10 μL of internal standard. The samples are then vortexed for 10 seconds followed by addition of 1 mL of extraction solvent and vortexed for 5 minutes. The samples are then centrifuged at 10000 rpm for 5 minutes at 4° C. Supernatants (800 μL) are removed and transferred to glass tubes and evaporated to dryness under nitrogen. The dried residues are reconstituted using 100 μL of 90:10% v/v acetonitrile:MilliQ water. The reconstituted samples are vortexed, centrifuged and injected into LC-MS/MS for analysis. The calibration curve is prepared in the range of 0.5 to 5000 ng/mL in mouse plasma for quantitation.

The test system of data set [3] is A673 (Ewing's Sarcoma) cancer cell line. The experiment in a line: Anti-proliferative assay (MTS / CCK-8). Type of data set: cell-based. As to conditions: for pIC50: Homo sapiens, A673 (Ewing's Sarcoma), 72 hours, 100 ng/mL IGF, read-out: Anti-proliferation IC50; for anti-proliferative activity as compared to compound 999: Ewing's Sarcoma cell line. As for the experimental part:
Anti-proliferative potential of compounds was tested using various cell lines (details provided in Table 2) by MTS (Promega, Cat # G1111), a tetrazolium compound ((3-(4,5-dimethylthiazol-2-yl)-5-(3-carboxymethoxyphenyl)-2-(4-sulphophenyl)-2Htetrazolium, inner salt; MTS) and Cell Counting kit-8 (CCK-8 a Dojindo's highly watersoluble tetrazolium salt of WST-8 [2-(2-methoxy-4-nitrophenyl)-3-(4-nitrophenyl)-5-(2,4-disulfophenyl)-2H-tetrazolium, monosodium salt]). MTS is a colorimetric assay for determining the number of viable cells in proliferation, cytotoxicity or chemosensitivity assays. This is used with an electron coupling reagent PMS (Phenazine methosulfate). MTS is bioreduced by cells into a formazan that is soluble in tissue culture medium. The absorbance of the formazan at 490 nm can be measured directly from 96 well assay plates without additional processing. Dehydrogenase enzymes found in metabolically active cells accomplish the conversion of MTS into the aqueous soluble formazan. The quantity of formazan product is directly proportional to the number of living cells in culture. In CCK-8, WST-8 is reduced by dehydrogenases in cells to give a yellow colored product formazan, which is measured at 450 nm.
For experimental purposes, cells were seeded at a density of 3000-5000 cells per well in 180 μL/well volume in transparent 96 well tissue culture plate (NUNC, USA) and incubated overnight at 37° C., 5% CO2. Next day before adding compound the medium was replaced and 180 μL, of fresh medium added with the 100 ng/mL IGF without FCS followed by addition of 20 μL of 10× compound (10 mM stock made in DMSO and then further dilutions were made in medium, final DMSO concentration should not exceed 0.5%) and incubated for 72 hours in humidified 5% CO2 incubator at 37±1° C. After incubation medium was replaced with 200 μL of medium containing 20 μL MTS reagent per well. Plates were incubated for 3-4 hours and absorbance was measured at 490 nm on Spectrophotometer (SpectraMax, Molecular Devices). Percentage cytotoxicity and IC50 was calculated using SoftMax software. CCK-8 was used for suspension cell lines. Cell seeding and compound addition was done on same day. Following the incubation, 10 μL of CCK-8 solution was added in each well. After 4 hour incubation, the absorbance was determined at 450 nm using Spectrophotometer (SpectraMax, Molecular Devices). In every experiment, each condition was run in triplicate wells.

What is called inhibition is how much of the control response was suppressed. In general, Cmax refers to the maximum level reached in the sampled fluid or tissue. The half-life is the time in which the quantity being followed falls by half. Higher therefore signals slow loss.

SMILES strings stand for the structures. pIC50: −log10 of the molar value.

T1 sequence (P08684 whole entry): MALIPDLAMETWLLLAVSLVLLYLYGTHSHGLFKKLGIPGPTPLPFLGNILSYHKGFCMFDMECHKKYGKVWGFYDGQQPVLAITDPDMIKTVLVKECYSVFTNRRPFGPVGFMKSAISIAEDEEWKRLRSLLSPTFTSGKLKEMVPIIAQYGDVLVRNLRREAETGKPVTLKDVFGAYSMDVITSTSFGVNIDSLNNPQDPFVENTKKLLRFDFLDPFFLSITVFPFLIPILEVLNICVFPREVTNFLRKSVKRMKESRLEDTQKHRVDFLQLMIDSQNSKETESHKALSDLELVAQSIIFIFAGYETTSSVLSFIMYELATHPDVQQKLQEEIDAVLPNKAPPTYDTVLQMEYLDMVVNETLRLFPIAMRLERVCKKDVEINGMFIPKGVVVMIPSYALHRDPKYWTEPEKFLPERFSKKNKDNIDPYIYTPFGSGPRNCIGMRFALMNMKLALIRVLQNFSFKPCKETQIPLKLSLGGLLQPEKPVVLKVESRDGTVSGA
T2 sequence (P10635 whole entry): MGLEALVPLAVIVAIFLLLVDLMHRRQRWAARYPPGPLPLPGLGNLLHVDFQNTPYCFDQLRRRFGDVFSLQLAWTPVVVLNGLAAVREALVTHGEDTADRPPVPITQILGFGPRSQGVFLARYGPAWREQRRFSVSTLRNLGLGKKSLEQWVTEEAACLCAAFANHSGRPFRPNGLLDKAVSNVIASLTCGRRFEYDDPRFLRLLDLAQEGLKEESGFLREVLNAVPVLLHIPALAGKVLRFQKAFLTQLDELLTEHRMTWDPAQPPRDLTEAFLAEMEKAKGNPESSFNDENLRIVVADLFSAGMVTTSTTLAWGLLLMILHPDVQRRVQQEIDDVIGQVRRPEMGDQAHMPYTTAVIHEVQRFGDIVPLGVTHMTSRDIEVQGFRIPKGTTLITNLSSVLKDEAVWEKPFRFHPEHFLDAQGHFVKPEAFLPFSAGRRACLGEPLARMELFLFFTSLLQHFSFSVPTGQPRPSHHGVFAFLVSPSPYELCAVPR
T3 sequence (P08069 999-1274 limits assumed): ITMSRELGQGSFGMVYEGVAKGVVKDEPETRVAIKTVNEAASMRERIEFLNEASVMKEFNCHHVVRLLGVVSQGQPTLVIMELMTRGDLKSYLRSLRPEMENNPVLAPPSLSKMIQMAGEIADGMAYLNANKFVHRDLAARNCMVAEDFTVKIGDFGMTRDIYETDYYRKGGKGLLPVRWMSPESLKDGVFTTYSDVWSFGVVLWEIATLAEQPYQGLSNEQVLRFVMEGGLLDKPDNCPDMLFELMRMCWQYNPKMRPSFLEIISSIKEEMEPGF

For `CCOc1ccc(-c2cccc(OC[C@@H]3CN(S(=O)(=O)c4c(C(N)=O)[nH]c5ccc(Cl)cc45)CCO3)c2)cn1` [Compound 17, (S)-5-chloro-3-((2-((3-(6-ethoxypyridin-3-yl)phenoxy)methyl)morpholino)sulfonyl)-1H-indole-2-carboxamide], at CYP3A4, the “hepatic CYP3A4 inhibition as compared to compound 999” value is “reduced” and the inhibition at 10 uM was 2%. Moreover, the inhibition at 10 uM at CYP2D6 is 13%. The molecule also showed a pIC50 in data set [1] of 8.00.
As for `Cc1ccc(OC[C@@H]2CN(S(=O)(=O)c3c(C(N)=O)[nH]c4ccc(Cl)cc34)CCO2)cc1-c1ccccc1` [Compound 20, (S)-5-chloro-3-((2-(((6-methyl-[1,1′-biphenyl]-3-yl)oxy)methyl)morpholino)sulfonyl)-1H-indole-2-carboxamide], on CYP3A4, the “hepatic CYP3A4 inhibition as compared to compound 999” value was “reduced” and the inhibition at 10 uM is 2%. For the same molecule, at CYP2D6, the inhibition at 10 uM is 25%. Also, in data set [2], the “AUC as compared to compound 999” value is reported as “higher”, the “Cmax as compared to compound 999” value is recorded as “higher”, the Cmax amounted to 1980 nM and the half-life was 2.1 h. Besides, the AUC(0-inf) in data set [2] stood at 4710 ng·h/mL. In data set [1], this molecule gave a pIC50 of 6.85.
`NC(=O)c1[nH]c2ccc(I)cc2c1S(=O)(=O)N1CCO[C@H](COc2ccccc2)C1` [Compound 999, reference compound]: the inhibition at 10 uM on CYP3A4 is 36%. Also, the inhibition at 10 uM on CYP2D6 came to 13%. Further, in data set [2], the peak level (Cmax) was 1200 nM, the half-life is 1.31 h and the AUC(0-inf) is 1050 ng·h/mL. Besides, in data set [3], the pIC50 was 8.46.
Take `NC(=O)c1[nH]c2ccc(Cl)cc2c1S(=O)(=O)N1CCO[C@H](COc2cccc(-c3cccnc3F)c2)C1` [Compound 3, (S)-5-chloro-3-((2-((3-(2-fluoropyridin-3-yl)phenoxy)methyl)morpholino)sulfonyl)-1H-indole-2-carboxamide]: in data set [2], the “AUC as compared to compound 999” value is on record as “higher”, the “Cmax as compared to compound 999” value is “higher”, the Cmax was determined as 2980 nM and the half-life is 4.6 h. Also, the AUC(0-inf) in data set [2] worked out at 1960 ng·h/mL. In data set [1], this molecule gave a pIC50 of 7.51.
As to `NC(=O)c1[nH]c2ccc(Cl)cc2c1S(=O)(=O)N1CCO[C@H](COc2ccc(-c3ccnc(Cl)c3)cc2)C1` [Compound 84, (S)-5-chloro-3-((2-((4-(2-chloropyridin-4-yl)phenoxy)methyl)morpholino)sulfonyl)-1H-indole-2-carboxamide], in data set [2], the “AUC as compared to compound 999” value is reported as “higher”, the “Cmax as compared to compound 999” value was “higher”, the highest level (Cmax) was 1240 nM and the half-life was 1.3 h. For the same molecule, the AUC(0-inf) in data set [2] worked out at 2200 ng·h/mL. The molecule also had a pIC50 in data set [1] of 7.73.
For `NC(=O)c1[nH]c2ccc(Cl)cc2c1S(=O)(=O)N1CCO[C@H](COc2cccc(-c3ccccc3)c2)C1` [Compound 1, (S)-3-((2-(([1,1′-biphenyl]-3-yloxy)methyl)morpholino)sulfonyl)-5-chloro-1H-indole-2-carboxamide], in data set [2], the “AUC as compared to compound 999” value is listed as “higher”, the “Cmax as compared to compound 999” value is listed as “higher”, the highest level (Cmax) was 8560 nM and the half-life was 5.3 h. In addition, the AUC(0-inf) in data set [2] was 10900 ng·h/mL. The pIC50 in data set [1] is 7.48. In addition, in data set [3], the “anti-proliferative activity as compared to compound 999” value was “higher” and the pIC50 was 8.74.
`NC(=O)c1[nH]c2ccc(Cl)cc2c1S(=O)(=O)N1CCO[C@H](COc2ccc(-c3ccncc3)cc2)C1` [Compound 32, (S)-5-chloro-3-((2-((4-(pyridin-4-yl)phenoxy)methyl)morpholino)sulfonyl)-1H-indole-2-carboxamide]: in data set [2], the “AUC as compared to compound 999” value was “higher”, the “Cmax as compared to compound 999” value is reported as “higher”, the peak level (Cmax) was 2780 nM and the half-life was 2.8 h. Besides, the AUC(0-inf) in data set [2] is 3190 ng·h/mL. In data set [1], this molecule showed a pIC50 of 8.46.
`NC(=O)c1[nH]c2ccc(Cl)cc2c1S(=O)(=O)N1CCO[C@H](COc2ccc(-c3ncccn3)cc2)C1` [Compound 53, (S)-5-chloro-3-((2-((4-(pyrimidin-2-yl)phenoxy)methyl)morpholino)sulfonyl)-1H-indole-2-carboxamide]: the inhibition at 10 uM stood at 37% at CYP3A4 and 0% on CYP2D6. For the same molecule, on CYP2D6 (10 uM), the “hepatic CYP2D6 inhibition as compared to compound 999” value was “reduced”. Further, the pIC50 in data set [1] is 8.19.
For `COc1ccc(-c2cccc(OC[C@@H]3CN(S(=O)(=O)c4c(C(N)=O)[nH]c5ccc(Cl)cc45)CCO3)c2)cn1` [Compound 7, (S)-5-chloro-3-((2-((3-(6-methoxypyridin-3-yl)phenoxy)methyl)morpholino)sulfonyl)-1H-indole-2-carboxamide], in data set [2], the “AUC as compared to compound 999” value is recorded as “higher”, the “Cmax as compared to compound 999” value is given as “higher”, the Cmax came to 2200 nM and the half-life is 0.9 h. Also, the AUC(0-inf) in data set [2] was 1940 ng·h/mL. Further, the pIC50 in data set [1] was 7.82. Also, in data set [3], the “anti-proliferative activity as compared to compound 999” value was “higher” and the pIC50 is 9.22.
With `Cc1cc(-c2ccc(OC[C@@H]3CN(S(=O)(=O)c4c(C(N)=O)[nH]c5ccc(Cl)cc45)CCO3)cc2)ccn1` [Compound 51, (S)-5-chloro-3-((2-((4-(2-methylpyridin-4-yl)phenoxy)methyl)morpholino)sulfonyl)-1H-indole-2-carboxamide], at CYP3A4, the “hepatic CYP3A4 inhibition as compared to compound 999” value was “reduced” and the inhibition at 10 uM stood at 13%. Moreover, on CYP2D6, the inhibition at 10 uM is 34%. Besides, in data set [2], the “AUC as compared to compound 999” value is reported as “higher”, the “Cmax as compared to compound 999” value is recorded as “higher”, the Cmax came to 2550 nM and the half-life is 1 h. In addition, the AUC(0-inf) in data set [2] is 3250 ng·h/mL. In data set [1], this molecule had a pIC50 of 8.37. For the same molecule, in data set [3], the “anti-proliferative activity as compared to compound 999” value is given as “higher” and the pIC50 was 9.82.
In the case of `Cc1cc(OC[C@@H]2CN(S(=O)(=O)c3c(C(N)=O)[nH]c4ccc(Cl)cc34)CCO2)ccc1-c1ccnc(Cl)c1` [Compound 87, (S)-5-chloro-3-((2-((4-(2-chloropyridin-4-yl)-3-methylphenoxy)methyl)morpholino)sulfonyl)-1H-indole-2-carboxamide], on CYP3A4, the “hepatic CYP3A4 inhibition as compared to compound 999” value was “reduced” and the inhibition at 10 uM stood at 24%. Also, at CYP2D6, the inhibition at 10 uM amounted to 16%. In data set [1], this molecule gave a pIC50 of 8.03.
